Measured values: patent US9944647B2 (Incyte Corporation, priority 2015, dated 2018)

These compounds were tested against LSD-1 enzyme (Homo sapiens (Human), UniProt O60341) (assay: LANCE LSD1/KDM1A demethylase assay (LSD1 histone demethylase biochemical assay)). Conditions: 1 nM LSD-1 enzyme, 1 hour preincubation at 25° C., Biotin-labeled Histone H3 peptide substrate.

Cc1ncc(-c2c(-c3ccc(C#N)cc3)nc(OC[C@@H]3CCCN(C)C3)n3ccnc23)cc1C#N [Example 70, 5-(7-(4-cyanophenyl)-5-{[(3R)-1-methylpiperidin-3-yl]methoxy}imidazo[1,2-c]pyrimidin-8-yl)-2-methylnicotinonitrile] and COc1ncc(-c2c(-c3ccc(C#N)cc3)nc(OC[C@@H]3CCCN(C)C3)n3ccnc23)cc1C [Example 69, 4-(8-(6-methoxy-5-methylpyridin-3-yl)-5-{[(3R)-1-methylpiperidin-3-yl]methoxy}imidazo[1,2-c]pyrimidin-7-yl)benzonitrile] cannot be ordered by IC50: no more than 50 nM for the first, no more than 50 nM for the second.

CC(C)c1ccc(-c2c(-c3ccc(C#N)cc3)nc(N3CCC(N(C)C)CC3)n3ccnc23)cn1 [Example 118, 4-[5-[4-(dimethylamino)piperidin-1-yl]-8-(6-isopropylpyridin-3-yl)imidazo[1,2-c]pyrimidin-7-yl]benzonitrile] and COc1ccc(-c2c(-c3ccc(C#N)cc3)nc(N3CCC(N(C)C)CC3)n3ccnc23)cn1 [Example 48, 4-[5-[4-(dimethylamino)piperidin-1-yl]-8-(6-methoxypyridin-3-yl)imidazo[1,2-c]pyrimidin-7-yl]benzonitrile] fall in the same range of IC50: 50 to 500 nM for the first, 50 to 500 nM for the second.

COC(=O)N(C)Cc1ccc(-c2c(-c3ccc(C#N)cc3)nc(OC[C@@H]3CCCN(C)C3)n3ccnc23)cc1F [Example 40, methyl[4-(7-(4-cyanophenyl)-5-{[(3R)-1-methylpiperidin-3-yl]methoxy}imidazo[1,2-c]pyrimidin-8-yl)-2-fluorobenzyl]methylcarbamate] and COC(=O)N(C)Cc1ccc(-c2c(-c3ccc(C#N)cc3)nc(OC[C@@H]3CCCN(C)C3)n3ccnc23)cc1 [Example 87, methyl [4-(7-(4-cyanophenyl)-5-{[(3R)-1-methylpiperidin-3-yl]methoxy}imidazo[1,2-c]pyrimidin-8-yl)benzyl]methylcarbamate] cannot be ordered by IC50: no more than 50 nM for the first, no more than 50 nM for the second.

COCc1ccc(-c2c(-c3ccc(C#N)cc3)nc(OC[C@@H]3CCCN(C)C3)n3ccnc23)cc1 [Example 94, 4-(8-[4-(methoxymethyl)phenyl]-5-{[(3R)-1-methylpiperidin-3-yl]methoxy}imidazo[1,2-c]pyrimidin-7-yl)benzonitrile] and CN1CCC[C@@H](COc2nc(-c3ccc(C#N)cc3)c(-c3ccc4c(c3)oc(=O)n4C)c3nccn23)C1 [Example 7, 4-(8-(3-methyl-2-oxo-2,3-dihydro-1,3-benzoxazol-6-yl)-5-{[(3R)-1-methylpiperidin-3-yl]methoxy}imidazo[1,2-c]pyrimidin-7-yl)benzonitrile] cannot be ordered by IC50: no more than 50 nM for the first, no more than 50 nM for the second.

CN1CCC[C@@H](COc2nc(-c3ccc(C#N)cc3)c(-c3ccc4c(c3)OC(=O)N(C)C4)c3nccn23)C1 [Example 43, 4-(8-(3-methyl-2-oxo-3,4-dihydro-2H-1,3-benzoxazin-7-yl)-5-{[(3R)-1-methylpiperidin-3-yl]methoxy}imidazo[1,2-c]pyrimidin-7-yl)benzonitrile] and CN1CCC[C@@H](COc2nc(-c3ccc(C#N)cc3)c(-c3ccc4c(c3)nc(C(F)F)n4C)c3nccn23)C1 [Example 64, 4-(8-[2-(difluoromethyl)-1-methyl-1H-benzimidazol-5-yl]-5-{[(3R)-1-methylpiperidin-3-yl]methoxy}imidazo[1,2-c]pyrimidin-7-yl)benzonitrile] cannot be ordered by IC50: no more than 50 nM for the first, no more than 50 nM for the second.

CN1CCC[C@@H](COc2nc(-c3ccc(C#N)cc3)c(-c3cnc4c(cnn4C)c3)c3nccn23)C1 [Example 28, 4-[5-{[(3R)-1-methylpiperidin-3-yl]methoxy}-8-(1-methyl-1H-pyrazolo[3,4-b]pyridin-5-yl)imidazo [1,2-c]pyrimidin-7-yl]benzonitrile] and Cc1cc(-c2c(-c3ccc(C#N)cc3)nc(OC[C@@H]3CCCN(C)C3)n3ccnc23)cc(F)c1CO [Example 30, 4-(8-[3-fluoro-4-(hydroxymethyl)-5-methylphenyl]-5-{[(3R)-1-methylpiperidin-3-yl]methoxy}imidazo[1,2-c]pyrimidin-7-yl)benzonitrile] cannot be ordered by IC50: no more than 50 nM for the first, no more than 50 nM for the second.

CN1C(=O)COc2cc(-c3c(-c4ccc(C#N)cc4)nc(N4CCC(N(C)C)CC4)n4ccnc34)ccc21 [Example 51, 4-[5-[4-(dimethylamino)piperidin-1-yl]-8-(4-methyl-3-oxo-3,4-dihydro-2H-1,4-benzoxazin-7-yl)imidazo[1,2-c]pyrimidin-7-yl]benzonitrile] and Cc1nc2cc(-c3c(-c4ccc(C#N)cc4)nc(N4CCC(N(C)C)CC4)n4ccnc34)ccc2n1C [Example 63, 4-[5-[4-(dimethylamino)piperidin-1-yl]-8-(1,2-dimethyl-1H-benzimidazol-5-yl)imidazo[1,2-c]pyrimidin-7-yl]benzonitrile] cannot be ordered by IC50: no more than 50 nM for the first, no more than 50 nM for the second.

CCN1CCC[C@@H](COc2nc(-c3ccc(C#N)cc3)c(-c3ccc(C)cc3CO)c3nccn23)C1 [Example 119, 4-{5-{[(3R)-1-ethylpiperidin-3-yl]methoxy}-8-[2-(hydroxymethyl)-4-methylphenyl]imidazo[1,2-c]pyrimidin-7-yl}benzonitrile] and CN1CC[C@@H](COc2nc(-c3ccc(C#N)cc3)c(-c3ccc(N4CCCC4)nc3)c3nccn23)C1 [Example 22, 4-[5-{[(3R)-1-methylpyrrolidin-3-yl]methoxy}-8-(6-pyrrolidin-1-ylpyridin-3-yl)imidazo[1,2-c]pyrimidin-7-yl]benzonitrile] fall in the same range of IC50: 50 to 500 nM for the first, 50 to 500 nM for the second.

CN(C)C1CCN(c2nc(-c3ccc(C#N)cc3)c(-c3cc(F)c4c(c3)n(C)c(=O)n4C)c3nccn23)CC1 [Example 128, 4-[5-[4-(dimethylamino)piperidin-1-yl]-8-(7-fluoro-1,3-dimethyl-2-oxo-2,3-dihydro-1H-benzimidazol-5-yl)imidazo[1,2-c]pyrimidin-7-yl]benzonitrile] and CN(C)C1CCN(c2nc(-c3ccc(C#N)cc3)c(-c3cc4c(cc3F)n(C)c(=O)n4C)c3nccn23)CC1 [Example 129, 4-[5-[4-(dimethylamino)piperidin-1-yl]-8-(6-fluoro-1,3-dimethyl-2-oxo-2,3-dihydro-1H-benzimidazol-5-yl)imidazo[1,2-c]pyrimidin-7-yl]benzonitrile] cannot be ordered by IC50: no more than 50 nM for the first, no more than 50 nM for the second.

COc1ncc(-c2c(-c3ccc(C#N)cc3)nc(N3CCC(N(C)C)CC3)n3ccnc23)cc1Cl [Example 104, 4-{8-(5-chloro-6-methoxypyridin-3-yl)-5-[4-(dimethylamino)piperidin-1-yl]imidazo[1,2-c]pyrimidin-7-yl}benzonitrile] and Cc1cc(-c2c(-c3ccc(C#N)cc3)nc(N3CCC(N(C)C)CC3)n3ccnc23)cc(F)c1CO [Example 89, 4-{5-[4-(dimethylamino)piperidin-1-yl]-8-[3-fluoro-4-(hydroxymethyl)-5-methylphenyl]imidazo[1,2-c]pyrimidin-7-yl}benzonitrile] cannot be ordered by IC50: no more than 50 nM for the first, no more than 50 nM for the second.
